Measured values taken from patent US20210318318A1, “Kinase Activity In Tumors” (Institute For Cancer Research d/b/a The Research Institute …, priority 2018, published 2021).
“Also recorded” adds a separate entry of the source.

Assays:
MRCKB = target: T1, MRCKB (Homo sapiens, UniProt Q9Y5S2); test: BDP5290 target profiling (in vitro kinase assays, MIB/MS and MIB-bead selectivity profiling); assay type: binding
T1 construct: endogenous in cells; host or cells: OVSAHO
Description: (§1) MIB-elutions were then analyzed by western blot.
(§2) Kinome elutions were then analyzed using LC-MS/MS and changes in kinase binding quantified using label free quantitation.
(§3) Lysates were then incubated with MIBs for 45 minutes at 4° C. (Medard et al., J. Proteome Res., 2015, 14, 1574-1586) and added to gravity flow columns. The MIB preparation protocol was subsequently followed excluding the reduction and alkylation steps. Following methanol/chloroform precipitation, the precipitated pellet was resuspended in 20 μL complete MIBs lysis buffer and 4 μL 6×LSB was added to each sample. Samples were boiled at 100° C. for 5 minutes and subjected to western blot analysis. For the selectivity assay analyzed via LC-MS/MS, 5 mg OVSAHO lysates were preincubated with the same drug concentrations and incubated with MIBs, and the MIB preparation protocol was followed.

HGSOC cells = test: Cell viability of HGSOC cell line panel (Cell Titer Glo); assay type: cell-based, human
Description: Cells were treated with increasing concentrations of PF-03758309 and cell viability assessed by Cell Titer Glo according to manufacturer's instructions. Data represent the mean of six replicates.
Cell viability was assessed by Cell Titer Glo according to manufacturing. Data represent the mean of six replicates.
For short-term growth assays, 3000-5000 cells were plated per well in 96-well plates and allowed to adhere and equilibrate overnight. Drug was added the following morning and after 120 hours of drug treatment, cell viability was assessed using the CellTiter-Glo Luminescent cell viability assay according to manufacturer (Promega). Students t tests were performed for statistical analyses and p values ≤0.05 were considered significant. For colony formation assays, cells were plated in 24-well dishes (3000-5000 cells per well) and incubated overnight before continuous drug treatment for 14 days, with drug and media replaced twice weekly. At the end of treatment, cells were rinsed with PBS and fixed with chilled methanol for 10 minutes at −20° C. Methanol was removed by aspiration, and cells were stained with 0.5% crystal violet in 20% methanol for 20 minutes at room temperature, washed with distilled water, and scanned.

MRCKA [1] = target: T2, MRCKA (Homo sapiens, UniProt Q5VT25); test: BDP5290 target profiling (in vitro kinase assays, MIB/MS proteomic analysis of drug binders); assay type: binding; design: endogenous in cells; host or cells: OVSAHO; details: doses <5 μM
Description: PCA plot of MIB-determined SILAC ratios.
(§4) Statistical kinases are identified using Students T-tests with FDR 0.05.
as §3

[2] = tested on: FAK1, MLC and Paxillin phosphorylation; FAK1 and CHEK1 protein levels; test: Western blot of signaling in inhibitor-treated HGSOC cells; assay type: cell-based, human; details: HGSOC cells, 0.5, 1 or 3 μM, 48 hours
Description: COV362 cells were treated with 0.5, 1 or 3 μM of A-674563 or SB-772077 for 48 hours and signaling monitored by western blot.
Samples were harvested in MIB lysis buffer, subjected to SDS-PAGE […] and transferred to PVDF membranes before western blotting with primary antibodies. For pMYPT and pMLC blots, cells were harvested in a buffer containing 1% (w/v) SDS, 50 mM Tris pH 7.5 supplemented with protease and phosphatase inhibitors buffer and were passed through QIAshredder columns (Qiagen, 79654), (Unbekandt et al., Cell Commun. Signal., 2014, 12, 54). For the list of primary antibodies used, see Table 4. Secondary HRP-anti-rabbit and HRP-anti-mouse were obtained from ThermoFisher Scientific. SuperSignal West Pico and Femto Chemiluminescent Substrates (Thermo) were used to visualize blots.

MRCKA [3] = target: T2, MRCKA; details: Unbekandt et al., 2014; cited from earlier work
AURKB = target: T3, AURKB (Homo sapiens, UniProt Q96GD4); test: BDP5290 target profiling (in vitro kinase assays, MIB/MS and MIB-bead selectivity profiling); assay type: binding
T3 construct: endogenous in cells; host or cells: OVCAR4 cells; OVSAHO and KURAMOCHI lysates
Description: as §4, §1, §2, §3

[4] = cell lysates incubated with increasing doses for 30 minutes

T2 sequence (Q5VT25 whole entry): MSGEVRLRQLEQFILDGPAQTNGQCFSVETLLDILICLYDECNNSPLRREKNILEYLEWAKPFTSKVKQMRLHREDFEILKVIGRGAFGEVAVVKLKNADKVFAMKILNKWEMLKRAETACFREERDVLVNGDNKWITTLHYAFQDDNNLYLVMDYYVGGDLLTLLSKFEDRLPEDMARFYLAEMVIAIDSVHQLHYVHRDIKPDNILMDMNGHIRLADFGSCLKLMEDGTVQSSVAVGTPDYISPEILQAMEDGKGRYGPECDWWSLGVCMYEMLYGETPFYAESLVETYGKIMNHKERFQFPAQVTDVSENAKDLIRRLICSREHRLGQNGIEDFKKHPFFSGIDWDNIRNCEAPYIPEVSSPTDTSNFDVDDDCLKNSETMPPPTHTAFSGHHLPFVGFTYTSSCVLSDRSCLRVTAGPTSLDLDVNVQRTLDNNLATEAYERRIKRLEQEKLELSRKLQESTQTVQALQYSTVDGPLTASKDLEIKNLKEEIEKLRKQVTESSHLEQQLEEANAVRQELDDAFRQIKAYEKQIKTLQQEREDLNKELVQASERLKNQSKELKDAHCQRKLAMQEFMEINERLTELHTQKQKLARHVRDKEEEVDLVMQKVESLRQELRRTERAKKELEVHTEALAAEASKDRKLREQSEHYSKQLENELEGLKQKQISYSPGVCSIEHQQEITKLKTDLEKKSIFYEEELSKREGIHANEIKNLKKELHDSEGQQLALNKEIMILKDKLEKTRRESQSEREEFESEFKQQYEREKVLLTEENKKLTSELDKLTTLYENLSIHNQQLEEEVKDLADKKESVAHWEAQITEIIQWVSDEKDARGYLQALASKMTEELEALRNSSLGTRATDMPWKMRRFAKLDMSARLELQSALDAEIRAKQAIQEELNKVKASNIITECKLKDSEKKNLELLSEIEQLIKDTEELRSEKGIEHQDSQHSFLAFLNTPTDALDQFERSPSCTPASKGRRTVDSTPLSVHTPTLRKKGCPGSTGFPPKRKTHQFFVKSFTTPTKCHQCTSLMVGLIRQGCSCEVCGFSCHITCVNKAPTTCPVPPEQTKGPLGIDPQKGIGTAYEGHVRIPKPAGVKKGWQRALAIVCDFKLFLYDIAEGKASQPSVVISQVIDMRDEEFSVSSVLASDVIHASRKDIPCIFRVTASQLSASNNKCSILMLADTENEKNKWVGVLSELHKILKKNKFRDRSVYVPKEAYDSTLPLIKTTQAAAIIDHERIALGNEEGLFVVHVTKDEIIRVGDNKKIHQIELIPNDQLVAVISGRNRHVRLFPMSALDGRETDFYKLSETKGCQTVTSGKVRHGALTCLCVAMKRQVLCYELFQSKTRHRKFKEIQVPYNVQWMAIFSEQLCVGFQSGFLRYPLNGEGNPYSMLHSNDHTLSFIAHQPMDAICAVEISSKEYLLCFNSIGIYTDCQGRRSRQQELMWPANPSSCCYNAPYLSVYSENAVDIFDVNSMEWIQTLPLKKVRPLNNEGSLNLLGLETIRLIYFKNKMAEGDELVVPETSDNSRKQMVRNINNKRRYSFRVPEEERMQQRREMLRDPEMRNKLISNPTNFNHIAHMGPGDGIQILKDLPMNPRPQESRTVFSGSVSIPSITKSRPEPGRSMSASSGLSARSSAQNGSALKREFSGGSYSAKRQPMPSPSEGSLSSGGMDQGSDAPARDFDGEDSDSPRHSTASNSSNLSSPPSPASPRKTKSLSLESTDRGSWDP
T1 sequence (Q9Y5S2 whole entry): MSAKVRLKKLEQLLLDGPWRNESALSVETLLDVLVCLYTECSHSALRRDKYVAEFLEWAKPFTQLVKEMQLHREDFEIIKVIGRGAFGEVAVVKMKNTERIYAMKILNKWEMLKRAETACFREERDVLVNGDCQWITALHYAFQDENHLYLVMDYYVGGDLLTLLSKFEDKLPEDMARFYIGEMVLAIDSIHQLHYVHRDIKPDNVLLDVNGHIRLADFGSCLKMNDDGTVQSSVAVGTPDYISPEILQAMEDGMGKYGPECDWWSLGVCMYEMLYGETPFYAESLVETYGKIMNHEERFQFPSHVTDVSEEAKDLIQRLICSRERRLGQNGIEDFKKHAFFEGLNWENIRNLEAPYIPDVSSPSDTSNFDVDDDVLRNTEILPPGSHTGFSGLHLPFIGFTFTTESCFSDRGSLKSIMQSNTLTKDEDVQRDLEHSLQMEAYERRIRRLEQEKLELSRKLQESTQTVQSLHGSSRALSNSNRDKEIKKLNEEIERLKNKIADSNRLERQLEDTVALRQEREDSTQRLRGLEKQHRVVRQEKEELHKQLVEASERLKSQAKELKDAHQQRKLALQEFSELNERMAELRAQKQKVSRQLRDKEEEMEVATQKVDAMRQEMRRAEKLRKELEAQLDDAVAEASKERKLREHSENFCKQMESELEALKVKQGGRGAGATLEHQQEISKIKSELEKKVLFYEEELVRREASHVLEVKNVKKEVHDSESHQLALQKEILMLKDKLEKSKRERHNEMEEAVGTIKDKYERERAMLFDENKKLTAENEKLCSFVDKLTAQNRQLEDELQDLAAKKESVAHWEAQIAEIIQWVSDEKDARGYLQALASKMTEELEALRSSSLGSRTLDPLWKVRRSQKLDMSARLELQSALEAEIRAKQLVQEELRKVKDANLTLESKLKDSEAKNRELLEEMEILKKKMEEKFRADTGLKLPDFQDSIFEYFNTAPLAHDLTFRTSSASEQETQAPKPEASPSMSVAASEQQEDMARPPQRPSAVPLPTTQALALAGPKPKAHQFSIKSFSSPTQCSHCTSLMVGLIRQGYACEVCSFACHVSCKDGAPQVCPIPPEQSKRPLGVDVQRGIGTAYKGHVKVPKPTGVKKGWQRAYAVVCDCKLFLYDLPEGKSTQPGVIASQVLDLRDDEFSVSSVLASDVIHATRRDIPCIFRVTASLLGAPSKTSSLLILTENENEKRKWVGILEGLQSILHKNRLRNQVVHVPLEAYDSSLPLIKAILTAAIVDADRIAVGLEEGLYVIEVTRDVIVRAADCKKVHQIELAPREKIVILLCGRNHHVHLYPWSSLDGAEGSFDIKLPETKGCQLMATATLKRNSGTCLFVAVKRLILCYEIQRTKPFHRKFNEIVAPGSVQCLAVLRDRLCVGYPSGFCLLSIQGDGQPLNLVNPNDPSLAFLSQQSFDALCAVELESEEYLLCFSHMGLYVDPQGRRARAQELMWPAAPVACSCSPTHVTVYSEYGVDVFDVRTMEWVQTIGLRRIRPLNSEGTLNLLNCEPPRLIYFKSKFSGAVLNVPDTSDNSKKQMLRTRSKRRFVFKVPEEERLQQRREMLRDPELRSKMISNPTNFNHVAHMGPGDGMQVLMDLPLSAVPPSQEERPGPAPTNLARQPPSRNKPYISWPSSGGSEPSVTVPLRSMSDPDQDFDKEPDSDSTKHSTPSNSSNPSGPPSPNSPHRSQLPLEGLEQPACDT
T3 sequence (Q96GD4 whole entry): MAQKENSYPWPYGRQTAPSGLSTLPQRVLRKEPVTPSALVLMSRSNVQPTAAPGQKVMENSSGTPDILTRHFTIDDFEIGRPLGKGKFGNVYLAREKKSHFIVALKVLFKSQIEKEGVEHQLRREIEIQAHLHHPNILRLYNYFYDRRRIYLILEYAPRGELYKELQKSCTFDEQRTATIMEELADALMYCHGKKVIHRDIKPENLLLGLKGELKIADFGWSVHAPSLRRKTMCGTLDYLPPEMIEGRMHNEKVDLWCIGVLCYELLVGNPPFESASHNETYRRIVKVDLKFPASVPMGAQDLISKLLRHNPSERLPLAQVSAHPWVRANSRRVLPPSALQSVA

Compound: O=C(Nc1cn[nH]c1-c1ccccn1)c1nn(C2CCNCC2)cc1Cl [BDP5290]
- elution of MRCKB from MIB beads (western blot) (MRCKB; [4]): not MRCKB
- activity against primary target MRCKB in HGSOC cells (MRCKB; doses <5 μM): little activity
- potency in HGSOC cells (HGSOC cells; doses <5 μM): minimal potency
- cell viability of HGSOC cells (HGSOC cells; increasing concentrations, Cell Titer Glo): inhibiting HGSOC cell viability at higher concentrations; also recorded: minimal effects
- activity against primary target MRCKA in HGSOC cells (MRCKA [1]): little activity
- pMLC, pMYPT1, pFAK or total FAK1 or CHEK1 levels [2]: did not reduce
- Ki (MRCKA [3]): 10 nM
- elution of AURKB from MIB beads (western blot) (AURKB; [4]): elute AURKB
- off-target activity on AURKB in HGSOC cells (AURKB; doses <5 μM): off-targets
